# Test results taken from patent publication EP0393529A1, “5,11-dihydro-6H-dipyrido [3,2-b:2',3'-e][1,4]diazepin-6-ones and their use in the prevention or treatment of AIDS” (Boehringer Ingelheim Pharmaceuticals Inc., priority 1989, dated 1990).
# Where two headings read alike, the source gives them in different places.
# Experiments:
# [1] = biological target: T1, HIV-1 reverse transcriptase (Human immunodeficiency virus type 1 group M subtype B, UniProt P03367); assay: Reverse Transcriptase (RT) Assay (RNA-dependent DNA polymerase activity, cell-free, 3H-dGTP incorporation); type: biochemical; conditions: read-out: RT Inhibition % @ 10µg/ml
# T1 construct: Reverse transcriptase enzyme from the LAV strain; made in house; host or cells: E. coli strain JM109, clone pBRTprt1+ in vector pIBI21 (lac promoter)
# Protocol: After removal of the insoluble debris by centrifugation, the protein is precipitated by the addition of 3 volumes of saturated aqueous ammonium sulfate.
# The 2X concentrated stock reaction mixture is aliquoted and stored at -20°C. […] This enzyme assay has been adapted to a 96 well microtiter plate system, and has been previously described (6). […] Twenty µl of 0.12-0.5M EDTA are added to the first three wells of the microtiter plate.
# This group serves as background polymerization which is subtracted from all other groups. Twenty-five µl of the 2X reaction mixture are added to all wells and the assay is allowed to incubate at room temperature for 60 minutes. […] The microtiter plate is incubated for 15 minutes at 4°C and the precipitate is fixed onto #30 glass fiber paper (Schleicher & Schuell) using a Skatron semi-automatic harvester. […] Each vial receives 2 mls of scintillation cocktail and is counted in a Beckman beta counter.
# [2] = system: HTLV-IIIB strain of HIV-1; assay: Human T-Cell Culture Assay (syncytia formation in C8166 cells); type: cell-based; conditions: Human immunodeficiency virus 1, IIIB, 96 h, syncytia read four days after virus challenge, read-out: T-Cell Culture Assay(IC₅₀)
# Protocol: In order to confirm that compounds which are active in the RT Assay also have the ability to inhibit HIV replication in a living system, compounds according to the invention were also tested in the human T-Cell Culture Assay described below.
# Assay Theory: Formation of syncytia is a feature of in vitro cultures of CD4+ T-cells infected with HIV-1. In this assay, T-cells are treated with a putative replication inhibiting compound and then infected with HIV-1. After incubation the culture is checked for the formation of syncytia. The absence or reduction is the number of syncytia is used as a measure of the test compound's ability to inhibit HIV replication.
# Assay Method: The target cells, designated C8166, are a subclone of human lymphoma cells of T-cell origin and are established at an initial density of 5x10⁴ per 100 ul in RPMI 1640 (+ 10% fetal bovine serum) culture medium in 96 well flat bottom plates. A selected amount of test compound, dissolved in DMSO is included. After 24 hours, 50-100 TCID50's (the dose that results in induced effect in 50% of test cultures) of the HTLV-IIIB strain of HIV-1 (2) are innoculated into each culture. Control cultures receive compound or virus only. […] The percent inhibition by the test compound is determined by comparison with control values. […]
inhibition at 10 µg/mL ([1]; 10µg/ml compound) [%],IC50 [2] [µM],inhibition at 10 µg/mL [1] [%],SMILES
94,–,–,"CCCN1c2ncccc2NC(=O)c2cccnc21 [Example 2, 5,11-Dihydro-11-propyl-6H-dipyrido[3,2-b:2′,3′-e][1,4]diazepin-6-one]"
94,–,–,"CCCN1c2ncccc2C(=O)N(C)c2cccnc21 [Example 3, 5,11-Dihydro-5-methyl-11-propyl-6H-dipyrido[3,2-b:2′,3′-e][1,4]diazepin-6-one]"
98,190,–,"CCN1C(=O)c2cccnc2N(CC)c2ncccc21 [Example 4, 5,11-Diethyl-5,11-dihydro-6H-dipyrido[3,2-b:2′,3′-e][1,4]diazepin-6-one]"
–,–,100,"CCN1c2ncccc2C(=O)N(C)c2cccnc21 [Example 8, 5,11-Dihydro-11-ethyl-5-methyl-6H-dipyrido[3,2-b:2′,3′-e][1,4]diazepin-6-one]"
